Reference: US20020111353A1, “Inhibitors of c-Jun N-terminal kinases (JNK) and other protein kinases” (priority 2000, published 2002)

Key:
Assay type in all cases: biochemical
JNK1 = JNK1 (Homo sapiens, UniProt P45983); experiment: JNK1 inhibition assay (spectrophotometric coupled-enzyme assay, analogous to JNK3); conditions: read-out: JNK1 (Ki rating)
Procedure: (§1) Compounds were assayed for the inhibition of JNK3 by a spectrophotometric coupled-enzyme assay. In this assay, a fixed concentration of activated JNK3 (10 nM) was incubated with various concentrations of a potential inhibitor dissolved in DMSO for 10 minutes at 30° C. in a buffer containing 0.1 M HEPES buffer, pH 7.5, containing 10 mM MgCl2, 2.5 mM phosphoenolpyruvate, 200 μM NADH, 30 μg/mL pyruvate kinase, 10 μg/mL lactate dehydrogenase, and 200 μM EGF receptor peptide. The EGF receptor peptide has the sequence […], and is a phosphoryl acceptor in the JNK3-catalyzed kinase reaction. The reaction was initiated by the addition of 10 μM ATP and the assay plate is inserted into the spectrophotometer's assay plate compartment that was maintained at 30° C. The decrease of absorbance at 340 nm was monitored as a function of time. The rate data as a function of inhibitor concentration was fitted to competitive inhibition kinetic model to determine the Ki.
(§2) The JNK1 and JNK2 assays were performed in an analogous manner.

JNK2 = JNK2 (Homo sapiens, UniProt P45984); experiment: JNK2 inhibition assay (spectrophotometric coupled-enzyme assay, analogous to JNK3); conditions: read-out: JNK2 (Ki rating)
Sequence of JNK2 (P45984 whole entry, species assumed): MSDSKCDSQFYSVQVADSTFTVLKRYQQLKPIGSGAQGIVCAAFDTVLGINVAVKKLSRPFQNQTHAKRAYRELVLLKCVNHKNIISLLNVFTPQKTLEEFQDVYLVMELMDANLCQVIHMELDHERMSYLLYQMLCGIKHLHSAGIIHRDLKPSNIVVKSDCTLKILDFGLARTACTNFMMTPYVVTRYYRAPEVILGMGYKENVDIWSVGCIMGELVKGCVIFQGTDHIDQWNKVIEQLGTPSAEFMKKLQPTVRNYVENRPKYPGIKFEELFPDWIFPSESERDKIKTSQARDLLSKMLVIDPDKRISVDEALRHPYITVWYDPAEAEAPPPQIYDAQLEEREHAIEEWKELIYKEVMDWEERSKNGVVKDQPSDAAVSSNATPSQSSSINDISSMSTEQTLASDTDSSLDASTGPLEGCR
Procedure: as §1, §2

activated JNK3 = target: T1, activated JNK3 (Homo sapiens, UniProt P53779); experiment: JNK3 inhibition, spectrophotometric coupled-enzyme assay; conditions: for Ki: activated JNK3 10 nM, 10 μM ATP, 30° C., read-out: JNK3 (Ki rating); for p38/JNK3: ratio of p38 to JNK3 activity as a measure of selectivity
T1 construct: One such construct encodes amino acid residues Ser40-Glu402 of JNK3α1 and is preceded by Met and Gly residues; Met-Gly (added initiation methionine and glycine, from the NcoI cloning site) (N); made in house; host or cells: E. coli BL21 (DE3)
T1 sequence (P53779 40-402): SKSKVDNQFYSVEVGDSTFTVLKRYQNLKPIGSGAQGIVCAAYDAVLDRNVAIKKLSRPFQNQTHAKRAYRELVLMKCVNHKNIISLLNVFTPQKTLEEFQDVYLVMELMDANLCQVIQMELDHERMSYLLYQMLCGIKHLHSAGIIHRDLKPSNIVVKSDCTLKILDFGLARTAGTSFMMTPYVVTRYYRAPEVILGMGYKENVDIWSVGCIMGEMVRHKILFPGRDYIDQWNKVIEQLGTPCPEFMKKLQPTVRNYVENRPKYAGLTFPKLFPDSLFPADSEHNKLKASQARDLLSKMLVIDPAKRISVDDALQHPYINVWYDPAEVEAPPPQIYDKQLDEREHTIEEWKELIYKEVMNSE
Description: A BLAST search of the EST database using the published JNK3α1 cDNA as a query identified an EST clone (#632588) that contained the entire coding sequence for human JNK3α1. Polymerase chain reactions (PCR) using pfu polymerase (Strategene) were used to introduce restriction sites into the CDNA for cloning into the pET-15B expression vector at the NcoI and BamHI sites. The protein was expressed in E. coli. Due to the poor solubility of the expressed full-length protein (Met 1-Gln 422), an N-terminally truncated protein starting at Ser residue at position 40 (Ser 40) was produced. This truncation corresponds to Ser 2 of JNK1 and JNK2 proteins, and is preceded by a methionine (initiation) and a glycine residue. The glycine residue was added in order to introduce an NcoI site for cloning into the expression vector. In addition, systematic C-terminal truncations were performed by PCR to identify a construct that give rise to diffraction-quality crystals. One such construct encodes amino acid residues Ser40-Glu402 of JNK3α1 and is preceded by Met and Gly residues.
Five mg of JNK3 was diluted to 0.5 mg/ml in 50 mM HEPES buffer, pH 7.5, containing 100 mM NaCl, 5 mM DTT, 20 mM MgCl2 and 1 mM ATP. GST-MKK7(DD) was added at a molar ratio of 1:2.5 GST-MKK7:JNK3. After incubation for 30 minutes at 25° C., the reaction mixture was concentrated 5-fold by ultrafiltration in a Centriprep-30 (Amicon, Beverly, Mass.), diluted to 10 ml and an additional 1 mM ATP added. This procedure was repeated three times to remove ADP and replenish ATP. The final addition of ATP was 5 mM and the mixture incubated overnight at 4° C.
The activated JNK3/GST-MKK7(DD) reaction mixture was exchanged into 50 mM HEPES buffer, pH 7.5, containing 5 mM DTT and 5% glycerol (w/v) by dialysis or ultrafiltration. The reaction mixture was adjusted to 1.1 M potassium phosphate, pH 7.5, and purified by hydrophobic interaction chromatography (at 25° C.) using a Rainin Hydropore column. […] Activated JNK3 (i.e. doubly phosphorylated JNK3) was stored at −70° C. at 0.25-1 mg/ml.
as §1

activated p38 = activated p38 (Homo sapiens, UniProt Q16539); experiment: p38 inhibition assay; conditions: read-out: p38 (Ki rating)
Sequence of activated p38 (Q16539 whole entry, the tested form may be a part, canonical isoform): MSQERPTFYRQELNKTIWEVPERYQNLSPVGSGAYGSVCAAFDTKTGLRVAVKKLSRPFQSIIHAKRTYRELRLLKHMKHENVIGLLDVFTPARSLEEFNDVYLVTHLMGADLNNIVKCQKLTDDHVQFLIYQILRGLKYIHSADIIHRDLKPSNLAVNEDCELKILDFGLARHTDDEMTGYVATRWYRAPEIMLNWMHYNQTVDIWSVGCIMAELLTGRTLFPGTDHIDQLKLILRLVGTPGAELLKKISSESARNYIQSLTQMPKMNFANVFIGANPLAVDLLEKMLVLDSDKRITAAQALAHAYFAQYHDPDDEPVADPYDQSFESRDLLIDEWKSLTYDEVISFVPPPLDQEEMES
Procedure: Two splice variants of human p38 kinase, CSBP1 and CSBP2, have been identified. […] The polymerase chain reaction product was cloned into the pET-15b vector (Novagen). The baculovirus transfer vector, pVL-(His)6-p38 was constructed by subcloning a XbaI-BamHI fragment of pET15b-(His)6-p38 into the complementary sites in plasmid pVL1392 (Pharmingen).
p38 was activated by combining 0.5 mg/ml p38 with 0.005 mg/ml DD-double mutant MKK6 in Buffer B+10 mM MgCl2, 2 mM ATP, 0.2 mM Na2VO4 for 30 minutes at 20° C. The activation mixture was then loaded onto a 1.0×10 cm MonoQ column (Pharmacia) and eluted with a linear 20 column volume gradient to 1.0 M NaCl in Buffer B. The activated p38 eluted after the ADP and ATP. The activated p38 peak was pooled and dialyzed against buffer B+0.2 mM Na2VO4 to remove the NaCl. The dialyzed protein was adjusted to 1.1M potassium phosphate by addition of a 4.0M stock solution and loaded onto a 1.0×10 cm HIC (Rainin Hydropore) column previously equilibrated in Buffer D (10% glycerol, 20 mM β-glycerophosphate, 2.0 mM DTT) +1.1MK2HPO4. The protein was eluted with a 20 column volume linear gradient to Buffer D+50 mM K2HPO4. The double phosphorylated p38 eluted as the main peak and was pooled for dialysis against Buffer B+0.2 mM Na2VO4 The activated p38 was stored at −70° C.
This assay is carried out in the presence of 10 mM MgCl2 and 100 mM HEPES buffer at pH 7.6. For a typical IC50 determination, a stock solution is prepared containing all of the above components and activated p38 (5 nM). The stock solution is aliquotted into vials. A fixed volume of DMSO or inhibitor in DMSO (final concentration of DMSO in reaction is 5%) is introduced to each vial, mixed and incubated for 15 minutes at room temperature. EGF receptor peptide, […], a phosphoryl acceptor in p38-catalyzed kinase reaction, is added to each vial to a final concentration of 200 μM. The kinase reaction is initiated with ATP (100 μM) and the vials are incubated at 30° C. After 30 minutes, the reactions are quenched with equal volume of 10% trifluoroacetic acid (TFA).
The phosphorylated peptide is quantified by HPLC analysis. Separation of phosphorylated peptide from the unphosphorylated peptide is achieved on a reverse phase column (Deltapak, 5 μm, C18 100D, part no. 011795) with a binary gradient of water and acteonitrile, each containing 0.1% TFA. IC50 (concentration of inhibitor yielding 50% inhibition) is determined by plotting the % activity remaining against inhibitor concentration.
This assay is carried out in the presence of 10 mM MgCl2, 25 mM β-glycerophosphate, 10% glycerol and 100 mM HEPES buffer at pH 7.6. For a typical Ki determination, the Km for ATP in the ATPase activity of activated p38 reaction is determined in the absence of inhibitor and in the presence of two concentrations of inhibitor. Ki is determined from the rate data as a function of inhibitor and ATP concentrations. A stock solution is prepared containing all of the above components and activated p38 (60 nM). The stock solution is aliquotted into vials. A fixed volume of DMSO or inhibitor in DMSO (final concentration of DMSO in reaction is 2.5%) is introduced to each vial, mixed and incubated for 15 minutes at room temperature. The reaction is initiated by adding various concentrations of ATP and then incubated at 30° C. After 30 minutes, the reactions are quenched with 50 μl of EDTA (0.1 M, final concentration), pH 8.0. The product of p38 ATPase activity, ADP, is quantified by HPLC analysis.
Separation of ADP from ATP is achieved on a reversed phase column (Supelcosil, LC-18, 3 μm, part no. 5-8985) using a binary solvent gradient of following composition: Solvent A—0.1 M phosphate buffer containing 8 mM tetrabutylammonium hydrogen sulfate (Sigma Chemical Co., catalogue no. T-7158), Solvent B—Solvent A with 30% methanol.

Sequence of JNK1 (P45983 whole entry, species assumed): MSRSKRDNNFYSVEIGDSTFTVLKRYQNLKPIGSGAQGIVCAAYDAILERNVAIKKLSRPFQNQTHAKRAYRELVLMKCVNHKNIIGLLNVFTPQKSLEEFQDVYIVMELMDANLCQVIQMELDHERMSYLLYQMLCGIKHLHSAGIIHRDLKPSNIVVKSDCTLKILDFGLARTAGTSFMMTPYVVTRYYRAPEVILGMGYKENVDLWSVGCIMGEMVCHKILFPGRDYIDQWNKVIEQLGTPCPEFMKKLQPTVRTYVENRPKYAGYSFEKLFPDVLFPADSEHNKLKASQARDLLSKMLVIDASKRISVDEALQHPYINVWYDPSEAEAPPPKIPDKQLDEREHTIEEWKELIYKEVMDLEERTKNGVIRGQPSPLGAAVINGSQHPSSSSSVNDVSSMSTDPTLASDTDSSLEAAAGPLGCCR

| Ki (JNK1) [µM] | Ki (JNK2) [µM] | Ki (activated JNK3) [µM] | p38/JNK3 (activated JNK3) | Ki (activated p38) [µM] | SMILES |
| --- | --- | --- | --- | --- | --- |
| < 2 | < 2 | < 2 | >10 | > 10 | c1ccc(Cn2cc(-c3ccnc(NC4CCCCC4)n3)cn2)cc1 [II-65] |
| < 2 | < 2 | < 2 | >10 | > 10 | c1ccc(-n2cc(-c3ccnc(NC4CCCCC4)n3)cn2)cc1 [II-67] |
| 2 to 10 | 2 to 10 | < 2 | ≧10 | > 10 | COc1ccc(-n2cc(-c3ccnc(NC4CCCCC4)n3)cn2)cc1 [II-70] |
| < 2 | < 2 | < 2 | >10 | > 10 | Clc1ccc(Cl)c(-n2cc(-c3ccnc(NC4CCCCC4)n3)cn2)c1 [II-71] |
| < 2 | < 2 | < 2 | >10 | > 10 | Fc1ccc(-n2cc(-c3ccnc(NC4CCCCC4)n3)cn2)c(F)c1 [II-72, Cyclohexyl-{4-[l-(2,4-difluoro-phenyl)-1H-pyrazol-4-yl]-pyrimidin-2-yl}-amine] |
| < 2 | < 2 | < 2 | >10 | > 10 | Cc1c(-c2ccnc(Nc3ccc(F)cc3)n2)cnn1-c1ccccc1 [II-100] |
| < 2 | < 2 | < 2 | >10 | > 10 | Cc1c(-c2ccnc(Nc3ccc(Cl)cc3)n2)cnn1-c1ccccc1 [II-101] |
| < 2 | < 2 | < 2 | >10 | > 10 | Cc1c(-c2ccnc(Nc3ccc([N+](=O)[O-])cc3)n2)cnn1-c1ccccc1 [II-102] |
